PMC10706865, “Repurposing Study of 4-Acyl-1-phenylaminocarbonyl-2-substituted-piperazine Derivatives as Potential Anticancer Agents—In Vitro Evaluation against Breast Cancer Cells” (International Journal of Molecular Sciences, 2023)
Values joined by “and” are separate entries in the source; they are usually repeats but may differ in a detail not shown here. Equal entries are not always repeated. Where two headings read alike, the source gives them in different places.

How the values were obtained:
[1] = test system: MCF7 human breast cancer cells; assay: MTT cell viability assay, MCF7 breast cancer cells; type: cell-based; details: for IC50: MTT assay; for Selectivity Index: IC50 MCF 10A divided by IC50 MCF7, 72 h, MTT
Description: (§1) To evaluate the cytotoxicity of our compounds against cancer cells, they were evaluated in vitro against MCF7 human breast cancer cells. To examine the selectivity of our compounds, they were also studied against MCF 10A human normal cells. Both cell lines were exposed to different concentrations of our compounds for 72 h before measuring cell viability with the 3-(4,5-dimethylthiazol-2-yl)-2,5-diphenyltetrazolium bromide (MTT) assay (for conditions of the MTT assay, see the Experimental Part, Section 3). Docetaxel, an anticancer drug used in clinics, was tested under the same experimental conditions. Data were obtained from at least two independent experiments and were expressed as means ± standard error of means (SEM). The half-maximal inhibitory concentration (IC50) value of each compound was calculated, and the results are collected in Table 2. To evaluate the selective activity of our compounds, the selectivity index (SI) was also calculated. The curves of cell viability of MCF7 cancer cells and MCF 10A normal cells after the treatment with our compounds are shown (Figure 5, Figure 6, Figure 7, Figure 8 and Figure 9 and Figures S1–S4).
(§2) Exponentially growing cells were seeded into 96-well plates, and drugs were added 24 h later. Each compound was dissolved with DMSO (Panreac Applichem) to prepare a stock solution (100 mM). The working solutions of specific concentrations were prepared via the dilution of the stock solutions in the culture medium and were immediately used to treat the cells. The remaining stock solutions were aliquoted and frozen at −40 °C. We used different aliquots in each independent experiment to avoid the freeze–thaw cycles. Cells were exposed to the drugs for 72 h. After these 72 h, cell viability was determined with the MTT assay or the resazurin assay. These assays are colorimetric techniques that are widely used to determine cell viability.
(§3) The MTT assay is based on the capability of viable cells to transform the MTT salt into a purple formazan dye. After an incubation period of the cells with the MTT and a solubilization step, the quantity of the colored product is measured with a plate reading spectrophotometer. […] The quantity of formazan produced is presumably proportional to the number of viable cells. After seeding for 24 h, cells were treated with the tested drugs for 72 h. Then, medium was removed, and 125 μL of MTT (1 mg/mL in medium) was added to each well for 3–4 h. Subsequently, 80 μL of 20% sodium dodecyl sulfate (Panreac Applichem) in 20 mM hydrochloric acid (Panreac Applichem) was added to dissolve the insoluble purple formazan product, plates were incubated for 10 h at 37 °C, and optical densities were measured at 540 nm on a multiwell plate spectrophotometer reader.
(§4) In both assays, cell viability was expressed as percentage in relation to controls. All data were averaged from at least two independent experiments and were expressed as mean ± standard error of the mean (SEM). Selectivity indices (SI) were calculated by dividing the IC50 values in the nonmalignant cells by those in the cancer cells.

[2] = test system: MCF 10A human normal breast cells; assay: MTT cell viability assay, MCF 10A normal breast cells; type: cell-based
Description: as §1, §2, §3, §4

[3] = Homo sapiens, MCF7, 72 h, 72 h exposure, read-out: IC50 (Mean ± SEM; μM) MCF7 (Cancer)
[4] = 72 h exposure, read-out: IC50 (Mean ± SEM; μM) MCF 10A (Normal)
[5] = 72 h exposure, read-out: IC50 (Mean ± SEM; μM) MCF7 (Cancer)

| SMILES | IC50 [1, 3] | IC50 [1, 5] | IC50 ([1]; Homo sapiens, MCF7, 72 h, docetaxel line in nM, 72 h, read-out: IC50 (Mean ± SEM) MCF7 (Cancer)) | Selectivity Index [1] | IC50 [2, 4] | IC50 ([2]; docetaxel line in nM, 72 h, read-out: IC50 (Mean ± SEM) MCF 10A (Normal)) |
| --- | --- | --- | --- | --- | --- | --- |
| CC1CN(C(=O)c2ccccc2)CCN1C(=O)Nc1ccc([N+](=O)[O-])cc1 (stereo not drawn) [Compound 10] | 26.7 ± 3.3 µM | – | – | 1.3 ± 0.1 | 34.1 ± 1.7 µM | – |
| CC1CN(C(=O)OC(C)(C)C)CCN1C(=S)Nc1ccc([N+](=O)[O-])cc1 (stereo not drawn) [Compound 14] | 34.2 ± 0.1 µM | – | – | 1.0 ± 0.1 | 35.6 ± 4.5 µM | – |
| CC1CN(C(=O)c2cc3ccccc3o2)CCN1C(=O)Nc1ccc([N+](=O)[O-])cc1 (stereo not drawn) [Compound 18] | < 20 µM | 12.1 ± 0.6 µM | – | 2.5 ± 0.2 | 30.4 ± 1.8 µM | – |
| CC1CN(C(=O)c2cc3ccccc3o2)CCN1C(=O)Nc1ccc(C(F)(F)F)cc1 (stereo not drawn) [Compound 20] | 31.7 ± 4.1 µM | – | – | – | 244 ± 8.2 µM | – |
| CC1CN(C(=O)c2cc3ccccc3o2)CCN1C(=O)Nc1ccccc1[N+](=O)[O-] (stereo not drawn) [Compound 22] | 28.1 ± 1.2 µM | – | – | 1.2 ± 0.1 | 32.4 ± 1.9 µM | – |
| CC1CN(C(=O)c2cc3ccccc3o2)CCN1C(=O)Nc1ccccc1 (stereo not drawn) [Compound 25] | 48.5 ± 10.1 µM | – | – | 3.2 ± 0.7 | 161 ± 64.6 µM | – |
| CC1CN(C(=O)C(C)(C)C)CCN1C(=S)Nc1ccc([N+](=O)[O-])cc1 (stereo not drawn) [Compound 9] | < 20 µM | 15.8 ± 8.2 µM | – | 4.2 ± 1.0 | 58.2 ± 18.3 µM | – |
| O=C(c1cc2ccccc2o1)N1CCN(C(=O)Nc2ccccc2[N+](=O)[O-])C(c2ccccc2)C1 (stereo not drawn) [Compound 39] | 226 ± 175 µM | – | – | >2.5 | > 1000 µM | – |
| CC(=O)O[C@@]12CO[C@@H]1C[C@H](O)[C@@]1(C)C(=O)[C@H](O)C3=C(C)[C@@H](OC(=O)[C@H](O)[C@@H](NC(=O)OC(C)(C)C)c4ccccc4)C[C@@](O)([C@@H](OC(=O)c4ccccc4)[C@H]21)C3(C)C [Docetaxel, reference compound] | – | – | 0.0761 ± 0.0262 µM | ˂1 | – | < 0.001 µM |
| CC(C)(C)OC(=O)N1CCN(C(=O)Nc2ccc([N+](=O)[O-])cc2)C(c2ccccc2)C1 (stereo not drawn) [Compound 26] | – | – | – | 15.2 ± 11.1 | 71.3 ± 3.6 µM | – |
| CC1CN(C(=O)c2cc3ccccc3o2)CCN1C(=O)Nc1ccc(C#N)cc1 (stereo not drawn) [Compound 21] | < 20 µM | 19.4 ± 3.8 µM | – | 1.6 ± 0.2 | 31.2 ± 2.8 µM | – |
| O=C(c1cc2ccccc2o1)N1CCN(C(=O)Nc2ccc(Cl)cc2)C(c2ccccc2)C1 (stereo not drawn) [Compound 36] | 41.3 ± 4.2 µM | – | – | 4.0 ± 0.9 | 161 ± 16.5 µM | – |
| CC1CN(C(=O)c2cc3ccccc3o2)CCN1C(=O)NC12CC3CC(CC(C3)C1)C2 (stereo not drawn) [Compound 41, 4-(Benzofuran-2-carbonyl)-2-methyl-1-[(1-adamantyl)aminocarbonyl]piperazine] | 17.7 ± 5 µM | < 20 µM | – | 5.1 ± 2.3 and ~ 5 | 103 ± 66.9 µM | – |
| O=C(c1cc2ccccc2o1)N1CCN(C(=O)Nc2cc(C(F)(F)F)ccc2Cl)C(c2ccccc2)C1 (stereo not drawn) [Compound 38] | 91.9 ± 35.7 µM | – | – | 1.4 ± 0.3 | 117 ± 21.1 µM | – |
| CC1CN(C(=O)C(C)(C)C)CCN1C(=O)Nc1ccc([N+](=O)[O-])cc1 (stereo not drawn) [Compound 7] | 60.8 ± 1.2 µM | – | – | 0.6 ± 0.1 | 38.5 ± 4.6 µM | – |
| CC1CN(C(=O)c2cc3ccccc3o2)CCN1C(=O)Nc1ccccc1Br (stereo not drawn) [Compound 24] | 25.3 ± 1.6 µM | – | – | 1.3 ± 0.1 | 33.5 ± 3.5 µM | – |
| CC1CN(C(=O)OC(C)(C)C)CCN1C(=O)Nc1ccc(C(F)(F)F)c(Cl)c1 (stereo not drawn) [Compound 17] | 22.7 ± 1.6 µM | – | – | 1.9 ± 0.2 | 41.7 ± 4.1 µM | – |
| COc1ccccc1NC(=O)N1CCN(C(=O)c2cc3ccccc3o2)CC1C (stereo not drawn) [Compound 23] | 31.4 ± 5.5 µM | – | – | 2.3 ± 0.6 | 74.7 ± 30.2 µM | – |
| CC1CN(C(=O)c2cc3ccccc3o2)CCN1C(=O)Nc1ccc(Cl)cc1 (stereo not drawn) [Compound 19] | 30.5 ± 1.1 µM | – | – | – | 261 ± 2.6 µM | – |

Further lines, with some results ahead:

| IC50 [1, 3] | IC50 [1, 5] | IC50 ([1]; Homo sapiens, MCF7, 72 h, docetaxel line in nM, 72 h, read-out: IC50 (Mean ± SEM) MCF7 (Cancer)) | SMILES | Selectivity Index [1] | IC50 [2, 4] | IC50 ([2]; docetaxel line in nM, 72 h, read-out: IC50 (Mean ± SEM) MCF 10A (Normal)) |
| --- | --- | --- | --- | --- | --- | --- |
| 24.3 ± 3.4 µM | – | – | CC(C)(C)OC(=O)N1CCN(C(=O)Nc2ccccc2[N+](=O)[O-])C(c2ccccc2)C1 (stereo not drawn) [Compound 30] | 2.6 ± 0.1 | 63.2 ± 10.9 µM | – |
| 24.8 ± 1.7 µM | – | – | CC(C)(C)OC(=O)N1CCN(C(=O)Nc2ccc(F)cc2)C(c2ccccc2)C1 (stereo not drawn) [Compound 29] | 2.2 ± 0.5 | 56.3 ± 16.5 µM | – |
| 34.6 ± 4.8 µM | – | – | CC1CN(C(=O)OC(C)(C)C)CCN1C(=O)Nc1ccc([N+](=O)[O-])cc1 (stereo not drawn) [Compound 12] | 2.4 ± 0.0 | 84.2 ± 12.4 µM | – |
| 118 ± 48.7 µM | – | – | COc1ccc(NC(=O)N2CCN(C(=O)C(C)(C)C)CC2C)cc1 (stereo not drawn) [Compound 8] | 5.2 ± 3.1 | 541 ± 259 µM | – |
| 24.4 ± 3.1 µM | – | – | Cc1ccc(NC(=O)N2CCN(C(=O)OC(C)(C)C)CC2c2ccccc2)cc1 (stereo not drawn) [Compound 34] | 2.9 ± 0.5 | 68.7 ± 2.8 µM | – |
| < 20 µM | 16.8 ± 4 µM | – | CC(C)(C)OC(=O)N1CCN(C(=O)Nc2ccc(Cl)cc2)C(c2ccccc2)C1 (stereo not drawn) [Compound 27] | 2.2 ± 0.9 | 33.8 ± 6 µM | – |
| 250 ± 19.4 µM | – | – | COc1ccc(NC(=O)N2CCN(C(=O)OC(C)(C)C)CC2C)cc1 (stereo not drawn) [Compound 13] | 3.6 ± 0.6 | 915 ± 226 µM | – |
| < 20 µM | 19.5 ± 3.5 µM | – | CC(C)(C)OC(=O)N1CCN(C(=O)Nc2ccc(C#N)cc2)C(c2ccccc2)C1 (stereo not drawn) [Compound 28] | 2.7 ± 0.8 | 55.2 ± 24.4 µM | – |
| 359 ± 74.7 µM | – | – | COc1ccc(NC(=O)N2CCN(C(=O)c3ccccc3)CC2C)cc1 (stereo not drawn) [Compound 11] | 1.4 ± 0.4 | 478 ± 35.6 µM | – |
| 43.4 ± 3.7 µM | – | – | CC1CN(C(=O)OC(C)(C)C)CCN1C(=O)Nc1ccc(Cl)cc1 (stereo not drawn) [Compound 15] | 3.8 ± 1.1 | 170 ± 61.6 µM | – |
| 31.3 ± 3.6 µM | – | – | CC1CN(C(=O)OC(C)(C)C)CCN1C(=O)Nc1ccc(C(F)(F)F)cc1 (stereo not drawn) [Compound 16] | 1.9 ± 0.4 | 60.1 ± 19.8 µM | – |
| 130 ± 31.4 µM | – | – | COc1ccc(NC(=O)N2CCN(C(=O)OC(C)(C)C)CC2c2ccccc2)cc1 (stereo not drawn) [Compound 33] | 2.6 ± 0.4 | 325 ± 27.6 µM | – |
